This assay has as its system HASMCs. The assay can be described thus: Calcium imaging of HASMCs carrying GCaMP6f after ET-1 exposure. The format is cell-based, human. Conditions: 500 nM endothelin-1; HASMCs cultured in flasks (2D) and in channels (3D); fluorescence microscopy. Here is the method: Calcium imaging: HASMCs were infected with lentivirus carrying GCaMP6f and cultured in flasks (2D) and in channels (3D). Cells were then exposed to 500 nM endothelin-1 (ET-1, vasoconstrictor), and imaged via fluorescence microscopy (FIGS. 16A-16F).

These results are taken from US20250109387A1, “SMOOTH MUSCLE CELLS SEEDED IN MICROCHANNELS WITHIN HYDROGELS TO FORM FUNCTIONAL MEDIAL LAYERS IN ENGINEERED MICROVASCULATURE” (VANDERBILT UNIVERSITY, priority 2023, published 2025).

endothelin-1 [ET-1]: the “intracellular Ca^2+ release (GCaMP6f fluorescence over time)” value is listed as “substantial intracellular Ca^2+ release”.
